We go through 20 compounds from US8338422B2, “Indolin-2-ones and aza-indolin-2-ones” (Janssen Pharmaceutica NV, priority 2007, dated 2012).

One assay concerns the target PLK4 (h) (Homo sapiens, UniProt O00444). As to the kind of experiment: PLK-4 human kinase assay (SPA). The class given is biochemical. The settings on record: read-out: PLK4 pIC50 (converted). Here is the method: (§1) The in vitro inhibition of a panel of kinases was assessed using either the scintillation proximity assay (SPA) as described by Cook, N. D. et al., Advances in Experimental Medicine and Biology (1991), 36; p. 525-528; or the Fluorescence Resonance Energy Transfer (FRET) technology as described by Rodems, S. M. et al., Assay Drug Develop. Technol. (2002), 1; p. 9-19.
(§2) In the SPA technology the activity of the kinase of interest is measured using an appropriate biotinylated substrate that is incubated with the aforementioned kinase protein in the presence of (^33P) radiolabeled ATP. (^33P) Phosporylation of the substrate is subsequently measured through binding of the phosphorylated substrate to streptavidine coated beads that are based on the scintillant poly(vinyl toluene) (PVT-Beads). The scintillation intensity is detected by imaging on Leadseeker.
(§3) All kinases are pre-diluted to a 10× working concentration prior to addition into the assay. The composition of the dilution buffer for each kinase is detailed below.
In a final reaction volume of 30 μl PLK4 (h) (19 μg/ml) is incubated with 50 mM Hepes pH 8.0, 10 mM MgCl2, 50 mM NaCl, 1 mM NaF, 1 mM DTT, 10 μM of peptide Biotin-RPRGQRDSSYYWE-OH, 1 μM ATP and 2 nM [γ-^33P-ATP] (6.0 μCi/ml). After incubation of 60 minutes at room temperature, the reaction is stopped by addition of 40 μl, of stop solution containing 8.7 mM EDTA, BSA 0.17%, 0.17% Triton X-100, 1.7 mg/ml SPA beads (GE-healthcare). The plate is centriguged and read for Scintillation imaging on Leadseeker.

In the next assay the target is CDK1/CyclinB (h) (Homo sapiens, UniProt P06493). As to the kind of experiment: CDK1/CyclinB human kinase assay (FRET). The class given is biochemical. The settings on record: read-out: CDK1 pIC50 (converted). How it is done:
as §1
In the FRET technology the activity of the kinase of interest is measured using an appropriate substrate that is labeled with two fluorophores (coumarin and fluorescein). Phosphorylation is determined using a developing reagent comprising a protease that recognizes and cleaves nonphosphorylated peptides. Cleavage will disturb the FRET between the fluorescein and coumarin on the peptide. Uncleaved, phosphorylated peptides maintain the FRET signal. A ratiometric readout of the donor emission over the acceptor emission quantitates the reaction process.
as §3
In a final reaction volume of 10 μl, CDK1/CyclinB (h) (0.2 μg/ml) is incubated with 50 mM Hepes pH 7.5, 10 mM MgCl2, 1 mM EGTA, 0.01% Brij-35, 2 μM Z'lyte Ser/Thr peptide 12 and 10 μM ATP (Invitrogen's FRET assay). After incubation of 60 minutes at room temperature, the reaction is stopped by addition of 5 μL development reagent containing protease mix. After 60 minutes room temperature the development reaction is stopped by adding 5 μl stop solution. The plate is then read in fluorescence plate reader with excitation: 390 nm and dual emission: 460 and 538 nm. Emission ratio is determined to the formula=Emission signal intensity at 460 nm/Emission signal intensity at 538 nm.

A further assay concerns the target GSK3β (h) (Homo sapiens, UniProt P49841). As to the kind of experiment: GSK-3β human kinase assay (SPA). The assay is classed as biochemical. The settings on record: read-out: GSK3B pIC50 (converted). How it is done:
as §1, §2, §3
In a final reaction volume of 30 μl, GSK3β (h) (1 μg/ml) is incubated with 25 mM Tris pH 7.4, 10 mM MgCl2, 1 mM DTT, 1 μM peptide Biotin-KRREILSRRPSYR-OH, 1 μM ATP and 2 nM [γ-^33P-ATP] (6.0 μCi/ml). After incubation of 60 minutes at room temperature, the reaction is stopped by addition of […] of stop solution containing 8.7 mM EDTA, BSA 0.17%, 0.17% Triton X-100, 6.25 mg/ml SPA beads (GE-healthcare). The plate is centriguged and read for Scintillation imaging on Leadseeker.

For a further assay, the target named is AuroraB (h) (Homo sapiens, UniProt Q96GD4). In words: Aurora-B human kinase assay (SPA). The class given is biochemical. The settings on record: read-out: AuroraB pIC50 (converted). Here is the method:
as §1, §2, §3
In a final reaction volume of 30 μl, AuroraB (h) (0.5 μg/ml) is incubated with 60 mM Hepes pH 7.5, 3 mM MgCl2, 3 mM MnCl2, 3 μM Na3VO4, 0.05 mg/ml PEG, 2 mM DTT, 3 μM Biotin-[…]-OH, 0.5 μM ATP and 2.2 nM [γ-^33P-ATP] (6.8 μCi/ml). After incubation of 60 minutes at room temperature, the reaction is stopped by addition of 40 μL of stop solution containing 8.7 mM EDTA, BSA 0.17%, 0.17% Triton X-100, 5 mg/ml SPA beads (GE-healthcare). The plate is centriguged and read for Scintillation imaging on Leadseeker.

In another assay the test system is HCT-116. In words: Cellular proliferation assay (Alamar blue), HCT-116. The class given is cell-based. Conditions: HCT-116 cells, 72 hours with compound, 10% FCS. How it is done: (§4) […] functional properties of these compounds was tested in cellular proliferation assays on a panel of different cell lines in the presence of 10% FCS serum (37° C. and 5% (v/v) CO2). In a first step these cells were seeded and incubated for 24 hours in the absence of compound. In the second step the cells were incubated for 72 hours with the compounds to be tested for 72 hours. The viable cell number was finally assessed in a standard Alamar blue cell viability assay.
(§5) The viable cell number was assessed by incubation for either 4 h (HCT-116, H1299, H460) 6 h (SKOV3, HT29, U87-MG, Colo205) or 24 h (A2780, PC3, MDA-MB-231, A549, MCF-7) with Alamar blue (Resazurin 9 μg/ml, K-Ferrocyanide 90 μM K-Ferricyanide 90 μM) and the converted fluorescent product was quantified on a fluorescent plate readed (544 nm/590 nm). Effect of the compounds is calculated as of on control cells.
A general note: The colour change of resazurin is a common sign of viable cells or microbes.

In a further assay the test system is H1299. As to the kind of experiment: Cellular proliferation assay (Alamar blue), H1299. The settings on record: Homo sapiens, NCI-H1299, 72 h, H1299 cells, 72 hours with compound, 10% FCS, read-out: pIC50 H1299 (converted). The assay is classed as cell-based. Here is the method: as §4, §5
In another assay the test system is A2780. As to the kind of experiment: Cellular proliferation assay (Alamar blue), A2780. The assay is classed as cell-based. The settings on record: A2780 cells, 72 hours with compound, 10% FCS. How it is done:
as §4, §5

“And” between values parts separate entries of the source, which are not always exact repeats. Equal values may be shown once.

GSK3β (h), sequence (P49841 whole entry): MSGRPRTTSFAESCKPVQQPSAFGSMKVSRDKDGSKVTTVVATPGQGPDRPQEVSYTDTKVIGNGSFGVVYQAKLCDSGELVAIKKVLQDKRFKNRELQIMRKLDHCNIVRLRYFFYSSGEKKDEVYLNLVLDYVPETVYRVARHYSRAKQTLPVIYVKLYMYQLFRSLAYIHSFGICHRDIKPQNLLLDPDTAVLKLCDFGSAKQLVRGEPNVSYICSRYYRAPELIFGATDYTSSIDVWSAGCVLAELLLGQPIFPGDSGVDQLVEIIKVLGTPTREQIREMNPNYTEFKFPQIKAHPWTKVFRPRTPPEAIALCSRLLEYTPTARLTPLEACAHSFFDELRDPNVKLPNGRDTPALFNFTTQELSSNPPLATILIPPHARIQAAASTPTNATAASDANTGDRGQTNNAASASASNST
PLK4 (h), sequence (O00444 whole entry): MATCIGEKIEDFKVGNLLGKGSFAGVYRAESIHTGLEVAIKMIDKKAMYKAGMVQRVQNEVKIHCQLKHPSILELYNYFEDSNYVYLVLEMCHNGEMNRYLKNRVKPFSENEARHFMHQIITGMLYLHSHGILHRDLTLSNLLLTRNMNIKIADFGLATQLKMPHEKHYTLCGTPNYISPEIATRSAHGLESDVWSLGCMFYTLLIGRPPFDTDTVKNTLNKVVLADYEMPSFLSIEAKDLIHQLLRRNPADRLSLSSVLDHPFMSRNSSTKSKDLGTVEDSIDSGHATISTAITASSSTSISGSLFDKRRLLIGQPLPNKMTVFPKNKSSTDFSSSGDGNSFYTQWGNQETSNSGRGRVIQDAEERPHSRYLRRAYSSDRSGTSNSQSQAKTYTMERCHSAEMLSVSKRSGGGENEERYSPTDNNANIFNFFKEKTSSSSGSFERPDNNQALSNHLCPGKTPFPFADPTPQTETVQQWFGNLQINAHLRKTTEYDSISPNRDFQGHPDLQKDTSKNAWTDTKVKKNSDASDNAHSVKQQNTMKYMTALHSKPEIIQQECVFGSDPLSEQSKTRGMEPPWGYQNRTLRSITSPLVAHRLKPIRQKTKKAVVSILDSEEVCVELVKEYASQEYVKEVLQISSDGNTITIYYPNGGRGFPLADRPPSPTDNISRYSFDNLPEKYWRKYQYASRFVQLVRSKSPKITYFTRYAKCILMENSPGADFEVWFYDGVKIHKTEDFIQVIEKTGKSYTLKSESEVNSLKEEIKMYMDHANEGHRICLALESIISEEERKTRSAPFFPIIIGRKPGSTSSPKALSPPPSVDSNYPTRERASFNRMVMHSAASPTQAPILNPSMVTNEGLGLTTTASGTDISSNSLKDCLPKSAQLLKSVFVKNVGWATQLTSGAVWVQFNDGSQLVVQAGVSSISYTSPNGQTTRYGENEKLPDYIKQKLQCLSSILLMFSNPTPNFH
AuroraB (h), sequence (Q96GD4 whole entry): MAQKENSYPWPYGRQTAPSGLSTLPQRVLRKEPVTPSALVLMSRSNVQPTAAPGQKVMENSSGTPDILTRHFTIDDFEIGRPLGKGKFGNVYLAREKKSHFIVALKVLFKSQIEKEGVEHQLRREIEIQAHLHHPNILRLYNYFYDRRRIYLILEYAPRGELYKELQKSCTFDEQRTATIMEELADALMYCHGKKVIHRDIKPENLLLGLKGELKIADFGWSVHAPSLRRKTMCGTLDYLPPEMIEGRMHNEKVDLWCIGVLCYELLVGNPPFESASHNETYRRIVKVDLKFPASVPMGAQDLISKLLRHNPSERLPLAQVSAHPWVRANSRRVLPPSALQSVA
CDK1/CyclinB (h), sequence (P06493 whole entry): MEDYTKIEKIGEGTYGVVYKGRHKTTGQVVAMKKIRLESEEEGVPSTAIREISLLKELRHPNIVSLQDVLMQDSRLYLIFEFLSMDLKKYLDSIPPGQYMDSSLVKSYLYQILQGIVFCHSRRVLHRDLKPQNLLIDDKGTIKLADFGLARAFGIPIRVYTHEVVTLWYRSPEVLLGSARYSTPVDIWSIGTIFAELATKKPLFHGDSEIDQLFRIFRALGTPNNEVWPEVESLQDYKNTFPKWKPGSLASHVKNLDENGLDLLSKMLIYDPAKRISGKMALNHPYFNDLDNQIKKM
CDK1/CyclinB (h), sequence (P14635 whole entry partner): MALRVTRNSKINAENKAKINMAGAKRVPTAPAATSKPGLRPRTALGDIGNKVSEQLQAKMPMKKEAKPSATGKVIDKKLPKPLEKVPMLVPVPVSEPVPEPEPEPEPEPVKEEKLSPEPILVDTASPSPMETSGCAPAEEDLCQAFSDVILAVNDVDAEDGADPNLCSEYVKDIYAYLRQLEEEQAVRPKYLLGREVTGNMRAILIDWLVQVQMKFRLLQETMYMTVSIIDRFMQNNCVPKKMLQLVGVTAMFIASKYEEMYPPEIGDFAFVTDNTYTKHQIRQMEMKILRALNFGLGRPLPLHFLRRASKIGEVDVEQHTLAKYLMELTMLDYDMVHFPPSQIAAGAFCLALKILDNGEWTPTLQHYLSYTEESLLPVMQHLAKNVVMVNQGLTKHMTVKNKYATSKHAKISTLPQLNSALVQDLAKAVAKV

Regarding `CN1CCCCCCC(=O)N(C)CCCNc2ncnc3c2/C(=C/Nc2cccc(c2)C1)C(=O)N3` [Compound 74], the IC50 is 5.62 µM on PLK4 (h), above 10 µM at CDK1/CyclinB (h), above 10 µM on GSK3β (h) and above 10 µM on AuroraB (h).
In the case of `COc1ccc2cc1CN(C)CCCCC(=O)N(C)CCNc1ncnc3c1/C(=C/N2)C(=O)N3` [Compound 75], the IC50 was 5.89 µM on PLK4 (h), 5.37 µM at CDK1/CyclinB (h), 0.562 µM on GSK3β (h) and above 10 µM on AuroraB (h).
Taken in the same sequence, the figures for `CN1CCNc2ncnc3c2/C(=C/Nc2ccc(Cl)c(c2)OCCCCCCC1=O)C(=O)N3` [Compound 78] were above 10 µM, above 10 µM, 2.19 µM and 7.59 µM.
In the case of `CN1CCCCC(=O)N(C)CCNc2ncnc3c2/C(=C/Nc2cccc(c2)C1)C(=O)N3` [Compound 79], the IC50 was 3.31 µM on PLK4 (h), 8.91 µM on CDK1/CyclinB (h), 0.813 µM on GSK3β (h) and 9.12 µM on AuroraB (h).
On to `CN1CCCCCC(=O)N(C)CCNc2ncnc3c2/C(=C/Nc2cccc(c2)C1)C(=O)N3` [Compound 80], for which the IC50 on PLK4 (h) was 1.41 µM; at CDK1/CyclinB (h), above 10 µM; at GSK3β (h) it was 4.68 µM; at AuroraB (h) it was above 10 µM.
With `CN1CCCCCC(=O)N(C)CCCNc2ncnc3c2/C(=C/Nc2cccc(c2)C1)C(=O)N3` [Compound 81], the IC50 on PLK4 (h) was 1.07 µM; at CDK1/CyclinB (h), above 10 µM; on GSK3β (h), 2.75 µM; at AuroraB (h), above 10 µM.
With `CN1CCCC(=O)N(C)CCNc2ncnc3c2/C(=C/Nc2cccc(c2)C1)C(=O)N3` [Compound 82], the IC50 at PLK4 (h) was 6.17 µM; on CDK1/CyclinB (h), above 10 µM; at GSK3β (h) it was 1.05 µM; on AuroraB (h) it was above 10 µM.
For `CN1CCCCCCC(=O)N(C)CCNc2ncnc3c2/C(=C/Nc2cccc(c2)C1)C(=O)N3` [Compound 83], the IC50 at PLK4 (h) was 1.66 µM; at CDK1/CyclinB (h) it was above 10 µM; on GSK3β (h), 2.19 µM; at AuroraB (h), above 10 µM.
With `CN1CCCC(=O)N(C)CCCN(C)c2ncnc3c2/C(=C/Nc2ccc(Cl)c(c2)C1)C(=O)N3` [Compound 90], the IC50 at PLK4 (h) is 5.5 µM; on CDK1/CyclinB (h), above 10 µM; at GSK3β (h) it was 0.617 µM; on AuroraB (h), above 10 µM.
For `CN1CCCCC(=O)N(C)CCCN(C)c2ncnc3c2/C(=C/Nc2ccc(Cl)c(c2)C1)C(=O)N3` [Compound 91], the IC50 at PLK4 (h) was above 10 µM; at CDK1/CyclinB (h), above 10 µM; on GSK3β (h) it was 0.977 µM; on AuroraB (h) it was above 10 µM.
With `CN1CCN(c2ccc3cc2CN(C)CCCCC(=O)N(C)CCNc2ncnc4c2/C(=C/N3)C(=O)N4)CC1` [Compound 92], the IC50 on PLK4 (h) was 1.29 µM; at CDK1/CyclinB (h), above 10 µM; at GSK3β (h), 1.48 µM; at AuroraB (h) it was above 10 µM.
Regarding `CN1CCCC(=O)N(C)CCNc2ncnc3c2/C(=C/Nc2ccc(N4CCOCC4)c(c2)C1)C(=O)N3` [Compound 94], the IC50 was 5.13 µM on PLK4 (h), above 10 µM on CDK1/CyclinB (h), 1.05 µM at GSK3β (h) and above 10 µM on AuroraB (h).
Regarding `COc1cc2cc(c1OC)CN(C)CCCCC(=O)N(C)CCCNc1ncnc3c1/C(=C/N2)C(=O)N3` [Compound 95], the IC50 was 2.69 µM at PLK4 (h), 1.15 µM on CDK1/CyclinB (h), 3.16 µM on GSK3β (h) and above 10 µM at AuroraB (h).
Regarding `CN1CCCCC(=O)N(C)CCCNc2ncnc3c2/C(=C/Nc2ccc(N4CCOCC4)c(c2)C1)C(=O)N3` [Compound 96], the IC50 on PLK4 (h) is 0.741 µM; at CDK1/CyclinB (h) it was 3.39 µM; on GSK3β (h), 0.708 µM; at AuroraB (h), above 10 µM.
In the case of `N#Cc1ccc2cc1OCCCC(=O)N1CCN(CC1)c1ncnc3c1/C(=C/N2)C(=O)N3` [Compound 98], the IC50 on PLK4 (h) was above 10 µM; at CDK1/CyclinB (h) it was above 10 µM; on GSK3β (h), 0.776 µM; at AuroraB (h), above 10 µM.
Take `CN1CCNc2ncnc3c2/C(=C/Nc2cc(cc(C(F)(F)F)c2)OCCCC1=O)C(=O)N3` [Compound 127]: the IC50 at PLK4 (h), on CDK1/CyclinB (h), on GSK3β (h) and on AuroraB (h) was above 10 µM in each case.
`CN1CCNc2ncnc3c2/C(=C/Nc2cc(cc(C(F)(F)F)c2)OCCCCC1=O)C(=O)N3` [Compound 128]: the IC50 on PLK4 (h), on CDK1/CyclinB (h), at GSK3β (h) and on AuroraB (h) was above 10 µM throughout.
As to `CN1CCCCCC(=O)N(C)CCNc2ncnc3c2/C(=C/Nc2ccc(N4CCOCC4)c(c2)C1)C(=O)N3` [Compound 131], the IC50 on PLK4 (h) was 0.452 µM; at CDK1/CyclinB (h) it was above 10 µM; at GSK3β (h), 6.38 µM; at AuroraB (h), above 10 µM.
As to `CN1CCN(c2ccc3cc2OCCCCCC(=O)N(C)CCNc2ncnc4c2/C(=C/N3)C(=O)N4)CC1` [Compound 141], the IC50 at PLK4 (h) was 0.692 µM; at CDK1/CyclinB (h) it was 7.59 µM; on GSK3β (h), 0.447 µM; on AuroraB (h), above 10 µM.
Consider `COc1ccc2cc1OCC(=O)N[C@H](Cc1ccccc1)CN(C)CCNc1ncnc3c1/C(=C/N2)C(=O)N3` [Compound 191], for which the IC50 was 1.66 µM and 2.09 µM and > 10 µM on PLK4 (h); 2.4 µM with HCT-116 (Homo sapiens, HCT-116, 72 h, read-out: pIC50 HCT-116 (converted)); above 10 µM in the assay with H1299; 3.39 µM and 3.55 µM and > 10 µM on AuroraB (h); 2.45 µM in the assay with A2780 (Homo sapiens, A2780, 72 h, read-out: pIC50 A2780 (converted)). Moreover, in the assay with HCT-116, the “pIC50 HCT-116” value was 5.55 and 5.77. Besides, the “pIC50 A2780” value with A2780 was determined as 5.47.
